Reference: the supplement of paper PMC11208160

Experiment: recombinant barcode read abundance after kanamycin selection (control-corrected) (log10(CPM+1)); higher = more efficient recombination; sequences stand for … in AGTGCAGAGAAAATCGGCCAGTTTTCTCTGCCTGCAGTCCGCATGCCGT…AGATTTATGCAGCGGACTGCCTTTCTCCCAAAGTGATAAACCGGACAGTATCATGGACCGGTTTTCCCGGTAATCCGTATTTGCAAGGTTGGTTTCACT; site = the 11-nt target
In short: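 Pooled oligos, each joining a target to an IS621 bridge RNA target-binding loop, were cloned and co-electroporated with a donor plasmid into E. coli. Selective plates carried chloramphenicol/ampicillin/kanamycin and 0.1 mM IPTG, while chloramphenicol/ampicillin LB agar served as control, with two replicates of each. Recombination efficiency rests on averaged, control-corrected counts per million of barcodes at recombinant junctions, shown as log10(CPM+1).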
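Further: IS621 recombinase and bridge RNA in Escherichia coli cells.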

| Sequence | recombinant barcode read abundance (log10) |
| --- | --- |
| TCTTGCTCTTGGGTTCTAACCTGTTGCCT (site AGAACTCCTCA) | 0.102 |
| TCTTGCTCTTGGGTTCTAACCTGTTGCCT (site TCTTGCTCTAG) | 0.574 |
| TCTTGGACTTGGGTTCTAACCTGTTGCTT (site TCTTGGACTAA) | 0.421 |
| TCTTGGACTTGGGTTCTAACCTGTTGCTT (site TCTTGGACTCA) | 0.145 |
| TCTTGGACTTGGGTTCTAACCTGTTGCTT (site TCTTGGACTGA) | 0.0999 |
| TCTTGGACTTGGGTTCTAACCTGTTGCTT (site TCTTGGACTTA) | 0.138 |
| TCTTGGTCTTGGGTTCTAACCTGTTGCTA (site TCTTGGTCTTA) | 0.0413 |
| TCTTGGTCTTGGGTTCTAACCTGTTGCTA (site TTATGGTCTTA) | 0.208 |
| TCTTGTCCTTGGGTTCTAACCTGTTGCGA (site TCTTGTCCTAC) | 0.0306 |
| TCTTGTCCTTGGGTTCTAACCTGTTGCGA (site TCTTGTCCTCC) | 0.268 |
| TCTTGTCCTTGGGTTCTAACCTGTTGCGA (site TCTTGTCCTGC) | 0.343 |
| TCTTGTCCTTGGGTTCTAACCTGTTGCGA (site TCTTGTCCTTC) | 0.253 |
| TCTTGTCCTTGGGTTCTAACCTGTTGCGC (site TCTTGTCCTAC) | 0.0303 |
| TCTTGTCCTTGGGTTCTAACCTGTTGCGC (site TCTTGTCCTCC) | 0.093 |
| TCTTGTCCTTGGGTTCTAACCTGTTGCGC (site TCTTGTCCTGC) | 0.385 |
| TCTTGTCCTTGGGTTCTAACCTGTTGCGC (site TCTTGTCCTTC) | 0.0581 |
| TCTTGTCCTTGGGTTCTAACCTGTTGCGT (site TCTTGTCCTAC) | 0.682 |
| TCTTGTCCTTGGGTTCTAACCTGTTGCGT (site TCTTGTCCTCC) | 0.0386 |
| TCTTGTCCTTGGGTTCTAACCTGTTGCGT (site TCTTGTCCTGC) | 0.172 |
| TCTTGTCCTTGGGTTCTAACCTGTTGCGT (site TCTTGTCCTTC) | 0.0168 |
| TGAAACGCTTGGGTTCTAACCTGTTGCTT (site TGAAACGCTAA) | 1.2 |
| TGAAACGCTTGGGTTCTAACCTGTTGCTT (site TGAAGCCCTAA) | 0.0163 |

| Sequence | recombinant barcode read abundance (log10) |
| --- | --- |
| TGAAAGCCTTGGGTTCTAACCTGTTGCTT (site TGAAAGCCTAA) | 0.215 |
| TGAAAGCCTTGGGTTCTAACCTGTTGCTT (site TGGAAGTCTAA) | 0.0888 |
| TGAAGCCCTTGGGTTCTAACCTGTTGCTT (site TGAAACGCTAA) | 0.179 |
| TGAAGCCCTTGGGTTCTAACCTGTTGCTT (site TGAAGCCCTAA) | 0.321 |
| TGAAGTACTTGGGTTCTAACCTGTTGCCT (site TGAAATACTAG) | 0.35 |
| TGAAGTACTTGGGTTCTAACCTGTTGCCT (site TGAACTACTAG) | 0.169 |
| TGAAGTACTTGGGTTCTAACCTGTTGCCT (site TGAAGTACTAG) | 0.257 |
| TGAAGTACTTGGGTTCTAACCTGTTGCCT (site TGAATTACTAG) | 0 |
| TGAATGACTTGGGTTCTAACCTGTTGCCT (site TGAATGACTAG) | 0.544 |
| TGAATGACTTGGGTTCTAACCTGTTGCCT (site TGGATGCCTAG) | 0.0355 |
| TGAATGTCTTGGGTTCTAACCTGTTGCCT (site TGAAAGTCTAG) | 0.0491 |
| TGAATGTCTTGGGTTCTAACCTGTTGCCT (site TGAACGTCTAG) | 0.0549 |
| TGAATGTCTTGGGTTCTAACCTGTTGCCT (site TGAAGGTCTAG) | 0.0166 |
| TGAATGTCTTGGGTTCTAACCTGTTGCCT (site TGAATGTCTAG) | 1.23 |
| TGACACACTTGGGTTCTAACCTGTTGCTG (site TGACACACTCA) | 2.22 |
| TGACACACTTGGGTTCTAACCTGTTGCTG (site TGAGACACTCA) | 0.127 |
| TGACAGTCTTGGGTTCTAACCTGTTGCAG (site CACTTAACTTG) | 0.0862 |
| TGACAGTCTTGGGTTCTAACCTGTTGCAG (site TGACAGTCTCT) | 1.42 |
| TGACATGCTTGGGTTCTAACCTGTTGCCT (site TGAAATGCTAG) | 0.108 |
| TGACATGCTTGGGTTCTAACCTGTTGCCT (site TGACATGCTAG) | 1.37 |
| TGACATGCTTGGGTTCTAACCTGTTGCCT (site TGAGATGCTAG) | 0.0442 |
| TGACATGCTTGGGTTCTAACCTGTTGCCT (site TGATATGCTAG) | 0.172 |

| Sequence | recombinant barcode read abundance (log10) |
| --- | --- |
| TGACCCTCTTGGGTTCTAACCTGTTGCCT (site AGACCCTCTAG) | 0.703 |
| TGACCCTCTTGGGTTCTAACCTGTTGCCT (site CGACCCTCTAG) | 0.465 |
| TGACCCTCTTGGGTTCTAACCTGTTGCCT (site GGACCCTCTAG) | 0.0227 |
| TGACCCTCTTGGGTTCTAACCTGTTGCCT (site TGACCCTCTAG) | 2.39 |
| TGACGTCCTTGGGTTCTAACCTGTTGCAT (site TGACGTCCTAA) | 0.0504 |
| TGACGTCCTTGGGTTCTAACCTGTTGCAT (site TGACGTCCTAC) | 0.0943 |
| TGACGTCCTTGGGTTCTAACCTGTTGCAT (site TGACGTCCTAG) | 0.0926 |
| TGACGTCCTTGGGTTCTAACCTGTTGCAT (site TGACGTCCTAT) | 0.695 |
| TGACGTCCTTGGGTTCTAACCTGTTGCTT (site TGACGTCCTAA) | 0.293 |
| TGACGTCCTTGGGTTCTAACCTGTTGCTT (site TGACGTCCTAC) | 0.033 |
| TGACGTCCTTGGGTTCTAACCTGTTGCTT (site TGACGTCCTAG) | 0.122 |
| TGACGTCCTTGGGTTCTAACCTGTTGCTT (site TGACGTCCTAT) | 0.251 |
| TGAGATGCTTGGGTTCTAACCTGTTGCCT (site TGAAATGCTAG) | 0.199 |
| TGAGATGCTTGGGTTCTAACCTGTTGCCT (site TGACATGCTAG) | 0.026 |
| TGAGATGCTTGGGTTCTAACCTGTTGCCT (site TGAGATGCTAG) | 1.72 |
| TGAGATGCTTGGGTTCTAACCTGTTGCCT (site TGATATGCTAG) | 0.124 |
| TGAGATTCTTGGGTTCTAACCTGTTGCAT (site TGAGATTCTAT) | 1.55 |
| TGAGATTCTTGGGTTCTAACCTGTTGCAT (site TGTGATCCTAT) | 0.0159 |
| TGAGCGGCTTGGGTTCTAACCTGTTGCCT (site TGAGAGGCTAG) | 0.143 |
| TGAGCGGCTTGGGTTCTAACCTGTTGCCT (site TGAGCGGCTAG) | 0.438 |
| TGAGCGGCTTGGGTTCTAACCTGTTGCCT (site TGAGGGGCTAG) | 0.00469 |
| TGAGCGGCTTGGGTTCTAACCTGTTGCCT (site TGAGTGGCTAG) | 0.0667 |

| Sequence | recombinant barcode read abundance (log10) |
| --- | --- |
| TGAGTACCTTGGGTTCTAACCTGTTGCTT (site TGAGTACCTAA) | 1.39 |
| TGAGTACCTTGGGTTCTAACCTGTTGCTT (site TGAGTCCCTAA) | 0.0336 |
| TGAGTACCTTGGGTTCTAACCTGTTGCTT (site TGAGTGCCTAA) | 0.856 |
| TGAGTACCTTGGGTTCTAACCTGTTGCTT (site TGAGTTCCTAA) | 0.144 |
| TGAGTCCCTTGGGTTCTAACCTGTTGCAG (site AAGTGGTCTTA) | 0.149 |
| TGAGTCCCTTGGGTTCTAACCTGTTGCAG (site TGAGTCCCTCT) | 2.79 |
| TGAGTCCCTTGGGTTCTAACCTGTTGCTA (site TGAGTCCCTTA) | 2.27 |
| TGAGTCCCTTGGGTTCTAACCTGTTGCTA (site TGGGTCCCTAA) | 0.0131 |
| TGAGTGGCTTGGGTTCTAACCTGTTGCCT (site TGAGAGGCTAG) | 0.129 |
| TGAGTGGCTTGGGTTCTAACCTGTTGCCT (site TGAGCGGCTAG) | 0.108 |
| TGAGTGGCTTGGGTTCTAACCTGTTGCCT (site TGAGGGGCTAG) | 0.00884 |
| TGAGTGGCTTGGGTTCTAACCTGTTGCCT (site TGAGTGGCTAG) | 0.749 |
| TGATAGCCTTGGGTTCTAACCTGTTGCCT (site AGATAGCCTAG) | 0.063 |
| TGATAGCCTTGGGTTCTAACCTGTTGCCT (site CGATAGCCTAG) | 0.0141 |
| TGATAGCCTTGGGTTCTAACCTGTTGCCT (site GGATAGCCTAG) | 0.159 |
| TGATAGCCTTGGGTTCTAACCTGTTGCCT (site TGATAGCCTAG) | 0.901 |
| TGATATTCTTGGGTTCTAACCTGTTGCCT (site ACCAGCCCTCA) | 0.448 |
| TGATATTCTTGGGTTCTAACCTGTTGCCT (site TGATATTCTAG) | 0.245 |
| TGATCTCCTTGGGTTCTAACCTGTTGCAT (site TGATCTCCTAA) | 0.186 |
| TGATCTCCTTGGGTTCTAACCTGTTGCAT (site TGATCTCCTAT) | 0.28 |
